Source: patent publication US12501900B2, “Heterocyclyl pyridazine as fungicidal compounds” (Bayer Aktiengesellschaft, priority 2018, dated 2025)

How the values were obtained:
[1] = Measurement of LogP values by HPLC on reversed phase columns (EEC directive 79/831 Annex V.A8), methods [a], [b], [c]; assay type: physicochemical; conditions: HPLC on reversed phase column, method [a]; read-out: Log P
Protocol: Measurement of Log P values as provided herein was performed according to EEC directive 79/831 Annex V.A8 by HPLC (High Performance Liquid Chromatography) on reversed phase columns with the following methods: • ^[a]
If more than one Log P value is available within the same method, all the values are given and separated by “+”.
Lambda-max-values were determined using UV-spectra from 200 nm to 400 nm and the peak values of the chromatographic signals

Alternaria brassicae = test: In vivo preventive test on Alternaria brassicae (leaf spot on radish or cabbage); conditions: 144 h, 500 ppm of active ingredient, preventive spray on radish or cabbage, evaluated 6 days after inoculation, read-out: efficacy
Protocol: Example: In Vivo Preventive Test on Alternaria brassicae (Leaf Spot on Radish or Cabbage)
(§1) • Solvent: 5% by volume of Dimethyl sulfoxide • 10% by volume of Acetone • Emulsifier: 1 μl of Tween® 80 per mg of active ingredient
(§2) The active ingredients were made soluble and homogenized in a mixture of Dimethyl sulfoxide/Acetone//Tween®80 and then diluted in water to the desired concentration.
The young plants of radish or cabbage were treated by spraying the active ingredient prepared as described above. Control plants were treated only with an aqueous solution of Acetone/Dimethyl sulfoxide/Tween® 80.
After 24 hours, the plants were contaminated by spraying the leaves with an aqueous suspension of Alternaria brassicae spores. The contaminated radish or cabbage plants were incubated for 6 days at 20° C. and at 100% relative humidity.
The test was evaluated 6 days after the inoculation. 0% means an efficacy which corresponds to that of the control plants while an efficacy of 100% means that no disease was observed.

Botrytis cinerea = test: In vivo preventive test on Botrytis cinerea (grey mould); conditions: 500 ppm of active ingredient, preventive spray on gherkin or cabbage, evaluated 4 to 5 days after inoculation, read-out: efficacy
Protocol: Example: In Vivo Preventive Test on Botrytis cinerea (Grey Mould)
as §1, §2
The young plants of gherkin or cabbage were treated by spraying the active ingredient prepared as described above. Control plants were treated only with an aqueous solution of Acetone/Dimethyl sulfoxide/Tween® 80.
After 24 hours, the plants were contaminated by spraying the leaves with an aqueous suspension of Botrytis cinerea spores. The contaminated gherkin plants were incubated for 4 to 5 days at 17° C. and at 90% relative humidity. The contaminated cabbage plants were incubated for 4 to 5 days at 20° C. and at 100% relative humidity.
The test was evaluated 4 to 5 days after the inoculation. 0% means an efficacy which corresponds to that of the control plants while an efficacy of 100% means that no disease was observed.

Pyrenophora teres = test: In vivo preventive test on Pyrenophora teres (net blotch on barley); conditions: 240 h, 500 ppm of active ingredient, preventive spray on barley, evaluated 10 days after inoculation, read-out: efficacy
Protocol: Example: In Vivo Preventive Test on Pyrenophora teres (Net Blotch on Barley)
as §1, §2
The young plants of barley were treated by spraying the active ingredient prepared as described above. Control plants were treated only with an aqueous solution of Acetone/Dimethyl sulfoxide/Tween®80.
After 24 hours, the plants were contaminated by spraying the leaves with an aqueous suspension of Pyrenophora teres spores. The contaminated barley plants were incubated for 48 hours at 20° C. and at 100% relative humidity and then for 8 days at 20° C. and at 70-80% relative humidity.
The test was evaluated 10 days after the inoculation. 0% means an efficacy which corresponds to that of the control plants while an efficacy of 100% means that no disease was observed.

Sphaerotheca fuliginea = test: In vivo preventive test on Sphaerotheca fuliginea (powdery mildew on cucurbits); conditions: Podosphaera fuliginea, 192 h; 500 ppm of active ingredient; preventive spray on gherkin; evaluated 8 days after inoculation; read-out: efficacy
Protocol: Example: In Vivo Preventive Test on Sphaerotheca fuliginea (Powdery Mildew on Cucurbits)
as §1, §2
The young plants of gherkin were treated by spraying the active ingredient prepared as described above. Control plants were treated only with an aqueous solution of Acetone/Dimethyl sulfoxide/Tween® 80.
After 24 hours, the plants were contaminated by spraying the leaves with an aqueous suspension of Sphaerotheca fuliginea spores. The contaminated gherkin plants were incubated for 8 days at 20° C. and at 70-80% relative humidity.
The test was evaluated 8 days after the inoculation. 0% means an efficacy which corresponds to that of the control plants while an efficacy of 100% means that no disease was observed.

[2] = test system: Colletotrichum lindemuthianum; test: In vivo preventive test on Colletotrichum lindemuthianum (leaf spot on bean); conditions: 168 h, 500 ppm of active ingredient, preventive spray on bean, evaluated 7 days after inoculation, read-out: efficacy
Protocol: Example: In Vivo Preventive Test on Colletotrichum lindemuthianum (Leaf Spot on Bean)
as §1, §2
The young plants of bean were treated by spraying the active ingredient prepared as described above. Control plants were treated only with an aqueous solution of Acetone/Dimethyl sulfoxide/Tween® 80.
After 24 hours, the plants were contaminated by spraying the leaves with an aqueous suspension of Colletotrichum lindemuthianum spores. The contaminated bean plants were incubated for 24 hours at 20° C. and at 100% relative humidity and then for 6 days at 20° C. and at 90% relative humidity.
The test was evaluated 7 days after the inoculation. 0% means an efficacy which corresponds to that of the control plants while an efficacy of 100% means that no disease was observed.

Alternaria alternata = Alternaria alternata in vitro cell test; assay type: cell-based; conditions: 120 h, 20 ppm of active ingredient, liquid culture, 5 days incubation, read-out: efficacy (inhibition of fungal growth)
Protocol: (§3) Example: Alternaria alternata In Vitro Cell Test • Solvent: DMSO • Culture medium: 14.6 g anhydrous D-glucose (VWR), 7.1 g Mycological Peptone (Oxoid), 1.4 g granulated Yeast Extract (Merck), QSP 1 liter • Inoculum: spores suspension Fungicides were solubilized in DMSO and the solution used to prepare the required range of concentrations. The final concentration of DMSO used in the assay was ≤1%. A spore suspension of A. alternata was prepared and diluted to the desired spore density. Fungicides were evaluated for their ability to inhibit spore germination and mycelium growth in liquid culture assay. The compounds were added in the desired concentration to the culture medium with spores. After 5 days incubation, fungi-toxicity of compounds was determined by spectrometric measurement of mycelium growth. Inhibition of fungal growth was determined by comparing the absorbance values in wells containing the fungicides with the absorbance in control wells without fungicides.

[3] = test system: Colletotrichum lindemuthianum; test: Colletotrichum lindemuthianum in vitro cell test; assay type: cell-based; conditions: 144 h, 20 ppm of active ingredient, liquid culture, 6 days incubation, read-out: efficacy (inhibition of fungal growth)
Protocol: as §3, with “Example: Colletotrichum lindemuthianum” for “Example: Alternaria alternata”, “of C. lindemuthianum” for “of A. alternata”, “inhibit spores” for “inhibit spore”, “After 6” for “After 5”

| SMILES | chromatographic logP [1] | pest or weed control at 500 ppm (Alternaria brassicae) | pest or weed control at 500 ppm (Botrytis cinerea) | pest or weed control at 500 ppm (Pyrenophora teres) | pest or weed control at 500 ppm (Sphaerotheca fuliginea) | pest or weed control at 500 ppm [2] | inhibition at 20 ppm (Alternaria alternata) | inhibition at 20 ppm [3] |
| --- | --- | --- | --- | --- | --- | --- | --- | --- |
| Cc1cc(C2=NOCC(c3ccc(Cl)cc3)N2)c(Oc2cccc(C(F)(F)F)c2)nn1 (racemic) [I-040, rac-5-(4-chlorophenyl)-3-[6-methyl-3-[3-(trifluoro-methyl)phenoxy]pyridazin-4-yl]-5,6-dihydro-4H-1,2,4-oxadiazine] | 3.29 | 90 to 100% | 90 to 100% | 80 to 89% | 80 to 89% | 90 to 100% | 90 to 100% | 90 to 100% |
| Cc1ccc(CC2CON=C(c3c(Oc4cccc(C(F)(F)F)c4)nnc(Cl)c3NC3CC3)N2)c(C)c1 (racemic) [I-041, 3-chloro-N-cyclopropyl-5-[rac-5-[(2,4-dimethylphenyl)methyl]-5,6-dihydro-4H-1,2,4-oxadiazin-3-yl]-6-[3-(trifluoromethyl)phenoxy]pyridazin-4-amine] | 4.03 | 90 to 100% | 90 to 100% | – | 90 to 100% | – | 90 to 100% | 90 to 100% |
| Cc1ccc(CC2CON=C(c3c(Oc4cccc(C5CC5)c4F)nnc(Cl)c3C)N2)c(C)c1 (racemic) [I-058, rac-3-[6-chloro-3-(3-cyclopropyl-2-fluoro-phenoxy)-5-methyl-pyridazin-4-yl]-5-[(2,4-dimethylphenyl)methyl]-5,6-dihydro-4H-1,2,4-oxadiazine] | 4.3 | 90 to 100% | 90 to 100% | 80 to 89% | 90 to 100% | 90 to 100% | 90 to 100% | 90 to 100% |
| Cc1cc(C2=NOCCC(c3ccc4c(ccn4C)c3)N2)c(Oc2cccc(C(F)(F)F)c2)nn1 (racemic) [I-062, rac-5-(1-methylindol-5-yl)-3-[6-methyl-3-[3-(trifluoro-methyl)phenoxy]pyridazin-4-yl]-4,5,6,7-tetrahydro-1,2,4-oxadiazepine] | 1.92 | 90 to 100% | 90 to 100% | – | 90 to 100% | 90 to 100% | – | – |
| Cc1ccc(CC2CON=C(c3c(Oc4cccc(C(F)(F)F)c4)nnc(Cl)c3I)N2)c(C)c1 (racemic) [I-065, rac-3-[6-chloro-5-iodo-3-[3-(trifluoromethyl)phenoxy]pyridazin-4-yl]-5-[(2,4-dimethylphenyl)methyl]-5,6-dihydro-4H-1,2,4-oxadiazine] | 4.37 | 90 to 100% | – | 70 to 79% | – | 90 to 100% | 90 to 100% | 90 to 100% |
| Cc1ccc(CC2CC(=O)N=C(c3cc(Cl)nnc3Oc3cccc(C4CC4)c3)N2)c(C)c1 (racemic) [I-078, rac-2-[6-chloro-3-(3-cyclopropylphenoxy)pyridazin-4-yl]-6-[(2,4-dimethylphenyl)methyl]-5,6-dihydro-1H-pyrimidin-4-one] | 4.31 | 90 to 100% | 90 to 100% | 80 to 89% | 80 to 89% | 90 to 100% | 90 to 100% | 90 to 100% |
| Cc1ccc(CC2CCN=C(c3cc(Cl)nnc3Oc3cccc(C(F)(F)F)c3)N2)c(C)c1 (racemic) [I-117, 6-chloro-4-[rac-6-[(2,4-dimethylphenyl)methyl]-1,4,5,6-tetrahydropyrimidin-2-yl]-3-[3-(trifluoromethyl)phenoxy]pyridazine] | 2.56 | 90 to 100% | 90 to 100% | – | – | 90 to 100% | 90 to 100% | 90 to 100% |
| Cc1ccc(OCC2CON=C(c3cc(C)nnc3Oc3cccc(C(F)(F)F)c3)N2)c(C)c1 (racemic) [I-144, rac-5-[(2,4-dimethylphenoxy)methyl]-3-[6-methyl-3-[3-(trifluoromethyl)phenoxy]pyridazin-4-yl]-5,6-dihydro-4H-1,2,4-oxadiazine] | 3.98 | 90 to 100% | 90 to 100% | – | 70 to 79% | – | 90 to 100% | 90 to 100% |
| COc1ccc(C2NC(c3cc(C)nnc3Oc3cccc(C(F)(F)F)c3)=NOC2(F)F)cc1 (racemic) [I-154, rac-6,6-difluoro-5-(4-methoxyphenyl)-3-[6-methyl-3-[3-(trifluoromethyl)phenoxy]pyridazin-4-yl]-4,5-dihydro-1,2,4-oxadiazine] | 3.6 | 90 to 100% | 90 to 100% | 90 to 100% | 90 to 100% | 90 to 100% | 90 to 100% | 90 to 100% |
| COCCSc1nnc(Oc2cccc(C(F)(F)F)c2)c(C2=NOCC(Cc3ccc(C)cc3C)N2)c1C (racemic) [I-187, rac-5-[(2,4-dimethylphenyl)methyl]-3-[6-(2-methoxyethylsulfanyl)-5-methyl-3-[3-(trifluoromethyl)phenoxy]pyridazin-4-yl]-5,6-dihydro-4H-1,2,4-oxadiazine] | 4.51 | 90 to 100% | 90 to 100% | – | 90 to 100% | – | 90 to 100% | 90 to 100% |
